In test [1] the test system is C57BL/6 mice. Put plainly: Depression model test of anti-blepharoptosis caused by reserpine (akinesia, blepharoptosis, shell temperature). Format: in vivo. Particulars: for Blepharoptosis, “out-of-circle” ratio and shell temperature after reserpine (effect in words) / Change in the shell temperature (ΔT ° C.) / Degree of eye-closure / responders at 10 mg/kg / Change in the shell temperature (T ° C.): 10 mg/kg intragastric 7 days; for Blepharoptosis, “out-of-circle” ratio and shell temperature after reserpine (effect in words): compared with the solvent control group; for Improving akinesia, blepharoptosis and shell temperature: ranking among the tested compounds (in words): within the experiment; for Change in the shell temperature (ΔT ° C.) / Degree of eye-closure / responders at 10 mg/kg / Change in the shell temperature (T ° C.): reserpine 4 mg/kg i.p.; for Change in the shell temperature (ΔT ° C.) / Change in the shell temperature (T ° C.): abdomen, two hours after reserpine; for Change in the shell temperature (ΔT ° C.) / Degree of eye-closure / Change in the shell temperature (T ° C.): ±SD; for Degree of eye-closure: score 0-4 one hour after reserpine; for responders at 10 mg/kg: Mus musculus, po, 1 h, one hour after reserpine, 7.5 cm circle, 15-second observation, read-out: “out-of-circle” ratio. As for the experimental part:
120 male C57BL/6 mice were randomly selected to observe the number of their autonomic activity. The mice was placed into the YLS-1A multi-functional mice autonomic activity recorder, and after 1 min of adaption, the activity of the mice was counted within a time period from the end of 1st min to 4th min. 96 mice with the number of autonomic activity between 70˜140 were screened out, divided randomly into 8 groups, and intragastrically administrated with the drug compounds at a dose listed in Table 3, one time daily for 7 days consecutively. The solvent control group was administrated with 2% Tween-80 aqueous solution in the same volume. Except the normal control group, 30 min after the last administration, each group was injected intraperitoneally with reserpine at a dose of 4 mg/kg. Next, akinesia, blepharoptosis and shell temperature were observed.
I Akinesia: one hour after intraperitoneal injection of reserpine, the mice were placed at the center of a circle with a diameter of 7.5 cm for a 15-second observation to calculate the “out-of-circle” ratio.
II Blepharoptosis: one hour after intraperitoneal injection of reserpine, the eye closure of mice was observed and scored by the following standard: eyelids open, 0; eyelids ¼ closed, 1; eyelids 2/4 closed, 2; eyelids ¾ closed, 3; eyelids closed completely, 4.
III Shell temperature: two hours after intraperitoneal injection of reserpine, the shell temperature of the abdomen of the mice was measured.
120 C57BL/6 mice were randomly selected to observe the number of their autonomic activity. The method was the same with that of Experiment 1. 100 mice with the number of autonomic activity between 70˜140 were screened out, divided randomly into 10 groups, and intragastrically administrated with the drug compounds at a dose listed in Table 4, one time daily for 7 days consecutively. The mice in the normal group and the solvent control group were administrated with 2% Tween-80 aqueous solution in the same volume. Except the normal control group, 30 min after the last administration, each group was injected intraperitoneally with reserpine at a dose of 4 mg/kg. Next, akinesia, blepharoptosis and shell temperature were observed. Observation method was the same with that of Experiment 1.

In the next test the test system is mice. As to the kind of experiment: Anti-depression effect in the tested models (overall conclusion). The following applies: in the tested model at the tested dose. It is filed as in vivo. The source says: Based on the aforesaid experiments, the following conclusion can be drawn: • 1.
The subject of test [2] is C57BL/6 mice. As to the kind of experiment: "Acquired despair" depression model of tail suspension test in mice. Format: in vivo. Particulars: for Effect on immobility time in tail suspension test (in words): 10 mg/kg intragastric for 7 days, compared with the solvent control group. As for the experimental part:
30 min after administration at 7th day, the mice was fixed on a sustainer with a rubberized cloth at 1 cm close to the end of the tail of mice, making the mice hanged upside down. The head of the mice was about 30 cm above the table and its sight was separated from the neighboring mouse with a plate. Usually, the mice might manage to struggle in hopes of overcoming the abnormal body position. […] The accumulated immobility time within 6 min of each mouse was observed, which was regarded as “despair time”.
(§1) 130 mice were randomly selected to observe the number of their autonomic activity. The method was the same with that of Experiment 1. 108 mice with the number of autonomic activity between 70˜140 were screened out, divided randomly into 9 groups, and intragastrically administrated with the drug compounds at a dose listed in Table 2, one time daily for 7 days consecutively. The solvent control group was administrated with 2% Tween-80 aqueous solution in the same volume. 30 min after administration at 6th day, the number of the autonomic activity of each mouse was observed. 30 min after administration at 7th day, the immobility time in tail suspension test was observed. The method was the same with that in Experiment 1.

Test [3] concerns C57BL/6 mice. As to the kind of experiment: Number of autonomic activity of mice (YLS-1A autonomic activity recorder). The following applies: for Effect on autonomic activity of mice (in words): 10 mg/kg intragastric, one week, compared with the solvent control group; for Number of Autonomic activity (time): 10 mg/kg intragastric once daily, counted 30 min after administration at 6th day. Format: in vivo. As to the method: 110 mice were randomly selected to observe the number of their autonomic activity. The mice was placed into the YLS-1A multi-functional mice autonomic activity recorder, and after 1 min of adaption, the mice's activity was counted within a time period from the end of 1st min to 4th min. 96 mice with the number of autonomic activity between 70˜140 were screened out, divided randomly into 8 groups, and intragastrically administrated with the drug compounds at a dose listed in Table 1, one time daily for 7 days consecutively. The solvent control group was administrated with 2% Tween-80 aqueous solution in the same volume. All mice were placed into the autonomic activity recorder 30 min after administration at 6th day. After 1 min of adaption, the mice's activity was counted within a time period from the end of 1st min to 4th min.
as §1

Test [4] has as its system C57BL/6 mice. Put plainly: Forced swimming experiment in mice. Format: in vivo. The following applies: for Immobility time in the forced swimming test in mice(s): 30 min after last administration, end of 2nd min to 6th min; for Effect on immobility time in the forced swimming test (in words): within the dosage range (5-10 mg/kg), compared with the solvent control group. As for the experimental part: After 1˜2 days of adaptive feed, 80 male C57BL/6 mice, aged 6˜8 weeks and weighing 18˜22 g, were placed into the YLS-1A multi-functional mice autonomic activity recorder. After 1 min of adaption, the activity of the mice was counted within a time period from the end of 1st min to 4th min. 60 mice with the number of autonomic activity between 70˜140 were screened out, divided randomly into 6 groups, and intragastrically administrated with the drug compounds at a dose listed in Table 5, one time daily for 7 days consecutively. The solvent control group was administrated with 2% Tween-80 aqueous solution in the same volume. After the administration at 6th day, the mice were placed into a cylindrical aquarium with a water depth of 10 cm and 25° C. to force the mice to swim. After 15 min, the mice were taken out, dried and returned to the cage. 24 hours later, 30 min after the last intragastrical administration, the mice were placed into a glass bottle with a diameter of 10 cm, a height of 30 cm and a water depth of 10 cm, and the temperature of the water in the bottle was at 25° C. The mice were separated with an opaque partition, so as not to influence each other. After 2 min of adaption, an accumulated immobility time from the end of 2nd min to 6th min was recorded.

For test [5] the following is noted: Chinese patent application 201010169679.9; cited from earlier work.
[6] abbreviates: 10 mg/kg, compared with I-1, p<0.05.
[7] abbreviates: Experiment 1, end of 1st min to 4th min.
[8] abbreviates: 10 mg/kg intragastric once daily for 7 days.

The structures appear in SMILES notation. Entries after “also recorded” stand apart in the source; their conditions may differ. Read-outs that look alike come from different tables or passages of the source. Marks after values point to notes of the source that are not given here.

As to `CC(C)CNC(=O)/C=C/c1cc2c(c(C(F)(F)F)c1)OCO2` [Compound I-5, N-isobutyl-5′-trifluoromethyl-3′,4′-methylenedioxy cinnamamide], the “Blepharoptosis, “out-of-circle” ratio and shell temperature after reserpine (effect in words)” value in the test with C57BL/6 mice [1] was “improved significantly; also recorded: antagonizing the decrease of shell temperature, akinesia and improving the degree of eye closure”. The “Degree of eye closure / blepharoptosis after reserpine compared with I-1 (in words)” value with C57BL/6 mice [1] (10 mg/kg, compared with I-1) is “reduced”. Also, the ““out-of-circle” ratio after reserpine compared with I-1 (in words)” value in the test with C57BL/6 mice [1] (setting [6]) is listed as “increased markedly”. Moreover, the “Improving akinesia, blepharoptosis and shell temperature: ranking among the tested compounds (in words)” value in the test on C57BL/6 mice [1] (10 mg/kg) is given as “best effect”. The “Change in the shell temperature (ΔT ° C.)” value in the test on C57BL/6 mice [1] (Experiment 1) worked out at 1.32 ± 0.16 °C. Also, the Degree of eye-closure in the test on C57BL/6 mice [1] (Experiment 1) is reported as 0.42 ± 0.79**^ΔΔ. In addition, the responders at 10 mg/kg in the test with C57BL/6 mice [1] (Experiment 1) was determined as 92%. Further, the “Anti-depression effect compared with the pharmacologic effect of I-1 (in words)” value in the test with mice is “increased to some degree”. In the test with C57BL/6 mice [2], the “Effect on immobility time in tail suspension test (in words)” value is “remarkably reduce the immobility time; also recorded: reduce the immobility time of the mice in tail suspension test significantly; also recorded: significantly shorten the immobility time”. The “Effect on antagonizing immobility in tail suspension test compared with I-1 (in words)” value with C57BL/6 mice [2] (setting [6]) is reported as “better effect”. Besides, in the test with C57BL/6 mice [3], the “Effect on autonomic activity of mice (in words)” value is reported as “had no affect; also recorded: had no effect”. Besides, the entries for the “Number of Autonomic activity (time)” value in the test with C57BL/6 mice [3] (setting [7]) and with C57BL/6 mice [3] (Experiment 2) were 94.75 ± 23.98 time and 99.40 ± 19.67 time, respectively. Further, the “Immobility time in the forced swimming test in mice(s)” value is 91.20 ± 43.09 s with C57BL/6 mice [4] (5 mg/kg (low dose) intragastric once daily for 7 days) and 78.58 ± 35.70 s in the test on C57BL/6 mice [4] (setting [8]). The “Dose dependence of the effect on immobility time in the forced swimming test” value with C57BL/6 mice [4] (5 and 10 mg/kg) is “dose-dependent effect”. Besides, the “Effect on immobility time in the forced swimming test (in words)” value in the test on C57BL/6 mice [4] is “shortening the immobility time; also recorded: shorten the immobility time”.
Regarding `O=C(c1cc2c(c(C(F)(F)F)c1)OCO2)N1CCCCC1` [Compound I-13, 1-(5-trifluoromethyl-3,4-methylenedioxybenzoyl)-piperidine], in the test on C57BL/6 mice [1], the “Blepharoptosis, “out-of-circle” ratio and shell temperature after reserpine (effect in words)” value is “remarkably improve; also recorded: antagonizing the decrease of shell temperature, akinesia and improving the degree of eye closure”. For the same compound, the “Blepharoptosis, shell temperature and “out-of-circle” ratio compared with Compound I-1 (in words)” value with C57BL/6 mice [1] (10 mg/kg, compared with I-1, p<0.05, p<0.01) is “significantly improved effect”. The “Improvement in eye closure and shell temperature compared with fluoxetine (in words)” value with C57BL/6 mice [1] (10 mg/kg, compared with fluoxetine, p<0.05) was “better effect to a certain degree”. For the same compound, the “Improving akinesia, blepharoptosis and shell temperature: ranking among the tested compounds (in words)” value with C57BL/6 mice [1] (10 mg/kg) was “better effects”. In the test on C57BL/6 mice [1] (Experiment 2), the “Change in the shell temperature (T ° C.)” value came out at 30.20 ± 0.95 °C, the Degree of eye-closure turned out to be 0.90 ± 0.88 and the responders at 10 mg/kg is 70%. The “Anti-depression effect compared with the pharmacologic effect of I-1 (in words)” value in the test on mice is “increased to some degree”. The “Effect on immobility time in tail suspension test (in words)” value in the test on C57BL/6 mice [2] is listed as “reduce the immobility time of the mice in tail suspension test significantly; also recorded: significantly shorten the immobility time”. Further, the “Effect on autonomic activity of mice (in words)” value with C57BL/6 mice [3] was “had no effect”. Also, in the test on C57BL/6 mice [3] (Experiment 2), the “Number of Autonomic activity (time)” value is reported as 87.40 ± 22.39 time. For the same compound, the “Immobility time in the forced swimming test in mice(s)” value in the test on C57BL/6 mice [4] (setting [8]) is 76.00 ± 32.32 s. For the same compound, in the test on C57BL/6 mice [4], the “Effect on immobility time in the forced swimming test (in words)” value is “shortening the immobility time; also recorded: shorten the immobility time”.
Consider `COc1cc(/C=C/C(=O)NCC(C)C)cc2c1OCO2` [Compound I-1, N-isobutyl-5′-methoxy-3′,4′-methylenedioxy cinnamamide], for which the “Blepharoptosis, “out-of-circle” ratio and shell temperature after reserpine (effect in words)” value in the test with C57BL/6 mice [1] is given as “improved significantly; also recorded: remarkably improve”. Besides, in the test with C57BL/6 mice [1] (Experiment 1), the “Change in the shell temperature (ΔT ° C.)” value is 2.05 ± 0.24 °C, the Degree of eye-closure is 2.67 ± 0.89 and the responders at 10 mg/kg was 17%. Also, in the test on C57BL/6 mice [1] (Experiment 2), the “Change in the shell temperature (T ° C.)” value came out at 27.80 ± 0.61 °C, the Degree of eye-closure turned out to be 2.91 ± 0.75 and the responders at 10 mg/kg worked out at 10%. Further, the “Anti-depressive effect in animal experiments (in words)” value in test [5] is recorded as “significant anti-depressive effect”. In addition, the “Number of Autonomic activity (time)” value in the test on C57BL/6 mice [3] (setting [7]) is listed as 113.92 ± 14.24 time.

Source of the values: patent publication US10071989B2, “Substituted cinnamamide derivative, preparation method and use thereof” (TASLY PHARMACEUTICAL GROUP CO., LTD., priority 2011, dated 2018).
